Reference: patent publication US4298525A, “Bis-indole-alkaloid” (Richter Gedeon Vegyeszeti Gyar RT, priority 1979, dated 1981)
Read-outs that look alike come from different tables or passages of the source.

Legend:
[1] = in vivo
[2] = test system: Ehrlich ascites carcinoma; assay: effect on Ehrlich ascites carcinoma; type: in vivo, outbred Swiss mice; conditions: for Mean duration of life expressed in % of treated*/control: second part of table, maximum 400%
Protocol: (§1) Transplantation was carried out into outbred Swiss mice at a level of 5×10^6 ascites tumor cells. Administration of RGH-4451 was started 24 hours after transplantation.

Guerin sc. carcinoma = assay: effect on Guerin sc. carcinoma; type: in vivo, Wistar rats; conditions: for Mortality until the 22nd day/number of animals / Inhibition / Weight of tumor, treated: six subsequent days; for Inhibition / Weight of tumor, treated: 22nd day
Protocol: Tumors were transplanted into Wistar rats subcutaneously. Administration of RGH-4451 was started on the day following the transplantation and the compound was administered six subsequent days intraperitoneally. The inhibition of tumor growth was evaluated on the 22nd day.

[3] = acute toxicity on mice (LD50, i.p.); type: in vivo
Protocol: The acute toxicity of RGH-4451 was tested on mice.
The lethal dose killed the animals on the 2nd to 5th day.

[4] = paralytic symptoms at sublethal doses; type: in vivo; conditions: even at sublethal doses; by contrast with vincristine
NK/Ly ascites lymphoma = assay: effect on NK/Ly ascites lymphoma; type: in vivo, outbred Swiss mice
Protocol: Tests were carried out analogously with the Ehrlich ascites test.
as §1

P 388 leukemia = assay: effect on P 388 leukemia tumors of mice; type: in vivo, BDF1 hybrid mice
From the text: 10^6 P 388 leukemia cells were transplanted into BDF1 hybrid mice intraperitoneally. Administration of RGH-4451 was started the day following the transplantation.

[5] = overall tumor-growth inhibition and prolongation of life (summary of the tests); type: in vivo
Protocol: From the tests described hereinabove it can be concluded that 1.0 to 10.0 mg./kg. daily doses or 20 mg./kg. single doses of RGH-4451 have a significant tumor-growth inhibition effect and prolong the duration of life.

P 388 tumor cells = assay: inhibition of tumor growth in tissue culture, P 388; type: cell-based, mice; conditions: for inhibition at 0.1 µg/mL: Mus musculus, P388
Protocol: The inhibition of tumor growth was initially studied in a tissue culture. A 20 mg./ml. solution of RGH-4451 in a Fischer medium was prepared and subsequently diluted to the desired concentration. The number of cells in the P 388 cultures was determined 24 and 48 hours after treatment.
The inhibition was 43% after 24 hours and 89% after 48 hours. In in vitro tests the compound was 100-times less toxic than vincristine and 4-times less toxic than N-desmethyl-N-formyl-leurosine.

S 180 sc. carcinoma = assay: effect on S 180 sc. carcinoma; type: in vivo, Swiss mice; conditions: even at doses as high as 16 mg/kg i.p. daily
Protocol: S 180 sc. tumor tissues were transplanted into Swiss mice subcutaneously. Treatment was started 24 hours after transplantation. RGH-4451 was administered once a day in a dose of 2, 4, 8 and 16 mg./kg., respectively intraperitoneally. The tumor growth inhibition was evaluated on the 11th day on the basis of the weight of tumors. The change of the weight of spleen was also monitored.

[6] = therapeutic effect, MTD/min eff. D; conditions: in vivo
[7] = animals; cited from earlier work
[8] = human therapy; Rohn, R. et al.; cited from earlier work
[9] = administration of vincristine; cited from earlier work
[10] = 2.0 mg/kg i.p., 9 treatments, every day
[11] = 4.0 mg/kg i.p., 9 treatments, every day
[12] = 6.0 mg/kg i.p., 9 treatments, every day
[13] = 3.2 mg/kg i.p., 9 treatments, every day
[14] = 3.2 mg/kg i.p., 9 treatments, every day, control 12.3 days
[15] = 5.0 mg/kg i.p., 9 treatments, every day
[16] = 5.0 mg/kg i.p., 9 treatments, every day, control 13.2 days
[17] = 6.4 mg/kg i.p., 9 treatments, every day
[18] = 6.4 mg/kg i.p., 9 treatments, every day, control 12.3 days
[19] = 10 mg/kg i.p., 5 treatments, every second day
[20] = 10 mg/kg i.p., 5 treatments, every second day, control 10.5 days
[21] = 20 mg/kg i.p., 1 treatment, control 10.5 days
[22] = 20 mg/kg i.p., 6 treatments, every day
[23] = 20 mg/kg i.p., 6 treatments, every day, control 13.2 days

CCC12CN3CCc4c([nH]c5ccccc45)C(C(=O)OC)(c4cc5c(cc4OC)N(C=O)C4C(O)(C(=O)OC)C(OC(C)=O)C6(CC)C=CCN7CCC54C76)CC(C3)C1O2 (centres unmarked) [N-desmethyl-N-formyl-leurosine, reference compound]
MTD/min eff. D [1]: 4 | effect of a large single dose on the duration of life [2]: did not increase the duration of life

CCOCN1c2cc(OC)c(C3(C(=O)OC)CC4CN(CCc5c3[nH]c3ccccc53)CC(O)(CC)C4)cc2C23CCN4CC=CC(CC)(C(OC(C)=O)C(O)(C(=O)OC)C12)C43 (centres unmarked) [RGH-4451]
Mortality until the 22nd day/number of animals (Guerin sc. carcinoma; 2.0 mg/kg i.p.): 0/6 | Inhibition (Guerin sc. carcinoma; 2.0 mg/kg i.p.): 43 | Weight of tumor, treated (Guerin sc. carcinoma; 2.0 mg/kg i.p., control 18.9): 10.7 | Mortality until the 22nd day/number of animals (Guerin sc. carcinoma; 6.0 mg/kg i.p.): 0/6 | Inhibition (Guerin sc. carcinoma; 6.0 mg/kg i.p.): 81 | Weight of tumor, treated (Guerin sc. carcinoma; 6.0 mg/kg i.p., control 44.9): 8.69 | Mortality until the 22nd day/number of animals (Guerin sc. carcinoma; 10.0 mg/kg i.p.): 0/6 | Inhibition (Guerin sc. carcinoma; 10.0 mg/kg i.p.): 68 | Weight of tumor, treated (Guerin sc. carcinoma; 10.0 mg/kg i.p., control 44.9): 14.64 | Mortality until the 22nd day/number of animals (Guerin sc. carcinoma; 14.0 mg/kg i.p.): 5/6 | growth of Guerin carcinoma (in words) (Guerin sc. carcinoma; 2 to 10 mg/kg i.p. doses): strongly inhibited | Mean duration of life expressed in % of treated/control ([2]; 1.0 mg/kg i.p., 9 treatments, every day): 15.4% | Mean duration of life, treated ([2]; 1.0 mg/kg i.p., 9 treatments, every day, control 15.4 days): 54.2 days | On the 65th day alive [2, 10]: 9/10 | On the 65th day tumor-free [2, 10]: 6/10 | Mean duration of life, treated ([2]; 2.0 mg/kg i.p., 9 treatments, every day, control 16.4 days, first part of table): 43.0 days | Mean duration of life, treated ([2]; 2.0 mg/kg i.p., 9 treatments, every day, control 16.4 days, second part of table (65th day)): 64.1 days | Mean duration of life expressed in % of treated/control ([2]; 2.0 mg/kg i.p., 9 treatments, every day, first part of table): 261% | Mean duration of life expressed in % of treated*/control [2, 10]: 392% | On the 65th day alive [2, 11]: 8/10 | On the 65th day tumor-free [2, 11]: 7/10 | Mean duration of life, treated ([2]; 4.0 mg/kg i.p., 9 treatments, every day, control 16.4 days, first part of table): 36.4 days | Mean duration of life, treated ([2]; 4.0 mg/kg i.p., 9 treatments, every day, control 16.4 days, second part of table (65th day)): 62.9 days | Mean duration of life expressed in % of treated/control ([2]; 4.0 mg/kg i.p., 9 treatments, every day, first part of table): 222% | Mean duration of life expressed in % of treated*/control [2, 11]: 384% | On the 65th day alive [2, 12]: 8/10 | On the 65th day tumor-free [2, 12]: 4/10 | Mean duration of life, treated ([2]; 6.0 mg/kg i.p., 9 treatments, every day, control 15.9 days, first part of table): 48.2 days | Mean duration of life, treated ([2]; 6.0 mg/kg i.p., 9 treatments, every day, control 16.7 days, second part of table (65th day)): 65.8 days | Mean duration of life expressed in % of treated/control ([2]; 6.0 mg/kg i.p., 9 treatments, every day, first part of table): 303% | Mean duration of life expressed in % of treated*/control [2, 12]: 394% | On the 65th day alive ([2]; 20 mg/kg i.p., 1 treatment): 8/10 | On the 65th day tumor-free ([2]; 20 mg/kg i.p., 1 treatment): 3/10 | Mean duration of life, treated ([2]; 20 mg/kg i.p., 1 treatment, control 16.7 days, second part of table (65th day)): 65.5 days | Mean duration of life expressed in % of treated*/control ([2]; 20 mg/kg i.p., 1 treatment): 392% | antitumor effect (in words) ([2]; 2 to 6 mg/kg once a day): remarkable antitumor effect | proportion of treated animals tumor-free on the 65th day (in words) ([2]; 2 to 6 mg/kg once a day): a great part of the treated animals is tumor-free on the 65th day | LD50 of RGH-4451 as multiple of that of N-desmethyl-N-formyl-leurosine ([3]; i.p.): 2.5 times | LD50 of RGH-4451 as multiple of that of vinblastine ([3]; i.p.): about 10 times | LD50 of RGH-4451 as multiple of that of vincristine ([3]; i.p.): 17 fold | paralytic symptoms accompanying death ([3]; lethal dose): not accompanied by paralytic symptoms | LD50 ([3]; mouse, in vivo, ip): 70 mg/kg | crippling of surviving animals ([3]; survivors, in contrast with vincristine): not crippled even temporarily | paralytic symptoms [4]: entirely lacking | Mean duration of life expressed in % of treated/control (NK/Ly ascites lymphoma; [13]): 181% | Mean duration of life, treated (NK/Ly ascites lymphoma; [14]): 22.3 days | Mean duration of life expressed in % of treated/control (NK/Ly ascites lymphoma; [15]): 163% | Mean duration of life, treated (NK/Ly ascites lymphoma; [16]): 21.5 days | Mean duration of life expressed in % of treated/control (NK/Ly ascites lymphoma; [17]): 166% | Mean duration of life, treated (NK/Ly ascites lymphoma; [18]): 20.5 days | Mean duration of life expressed in % of treated/control (NK/Ly ascites lymphoma; [19]): 208% | Mean duration of life, treated (NK/Ly ascites lymphoma; [20]): 21.8 days | tolerability of the large dose given every day (in words) (NK/Ly ascites lymphoma; 20 mg/kg every day, cannot be administered due to its toxicity): cannot be administered every | Mean duration of life expressed in % of treated/control (NK/Ly ascites lymphoma; 20 mg/kg i.p., 1 treatment): 185% | Mean duration of life, treated (NK/Ly ascites lymphoma; [21]): 19.4 days | Mean duration of life expressed in % of treated/control (NK/Ly ascites lymphoma; [22]): 64% | Mean duration of life, treated (NK/Ly ascites lymphoma; [23]): 8.5 days | duration of life of the tumorous animals (in words) (NK/Ly ascites lymphoma; 3.2 to 6.4 mg/kg doses every day): considerably been prolonged | effect on duration of life (in words) (NK/Ly ascites lymphoma; single 20 mg/kg dose): also effective | Mean duration of life expressed in % of treated/control (P 388 leukemia; [13]): 181% | Mean duration of life, treated (P 388 leukemia; [14]): 22.3 days | Mean duration of life expressed in % of treated/control (P 388 leukemia; [15]): 163% | Mean duration of life, treated (P 388 leukemia; [16]): 21.5 days | Mean duration of life expressed in % of treated/control (P 388 leukemia; [17]): 166% | Mean duration of life, treated (P 388 leukemia; [18]): 20.5 days | Mean duration of life expressed in % of treated/control (P 388 leukemia; [19]): 208% | Mean duration of life, treated (P 388 leukemia; [20]): 21.8 days | Mean duration of life expressed in % of treated/control (P 388 leukemia; 20 mg/kg i.p., 1 treatment): 185% | Mean duration of life, treated (P 388 leukemia; [21]): 19.4 days | Mean duration of life expressed in % of treated/control (P 388 leukemia; [22]): 64% | Mean duration of life, treated (P 388 leukemia; [23]): 8.5 days | single dose with a significant tumor-growth inhibition effect and prolongation of life [5]: 20 mg/kg | growth of P 388 tumor cells (in words) (P 388 tumor cells; 10^-1 μg./ml.): considerably inhibited | inhibition at 0.1 µg/mL (P 388 tumor cells; 10^-1 μg./ml., after 24 hours): 43% | inhibition at 0.1 µg/mL (P 388 tumor cells; 10^-1 μg./ml., after 48 hours): 89% | in vitro toxicity, times less toxic than N-desmethyl-N-formyl-leurosine (P 388 tumor cells; in vitro, less toxic than N-desmethyl-N-formyl-leurosine): 4 times | in vitro toxicity, times less toxic than vincristine (P 388 tumor cells; in vitro, less toxic than vincristine): 100 times | decrease in the weight of spleen (S 180 sc. carcinoma): no substantial decrease in the weight of spleen | MTD/min eff. D [6]: 10

CC[C@]12CN3CCc4c([nH]c5ccccc45)[C@@](C(=O)OC)(c4cc5c(cc4OC)N(C)[C@H]4[C@@](O)(C(=O)OC)[C@H](OC(C)=O)[C@]6(CC)C=CCN7CC[C@]54[C@@H]76)C[C@H](C3)[C@H]1O2 [leurosine]
antitumor activity [7]: antitumor activity of leurosine has been proved on animals | toxicity on the hematopoietic organs [8]: unreasonably high toxicity on the hematopoietic organs

CC[C@]1(O)C[C@H]2CN(CCc3c([nH]c4ccccc34)[C@@](C(=O)OC)(c3cc4c(cc3OC)N(C=O)[C@H]3[C@@](O)(C(=O)OC)[C@H](OC(C)=O)[C@]5(CC)C=CCN6CC[C@]43[C@@H]65)C2)C1 [vincristine, N-desmethyl-N-formylvinblastine]
MTD/min eff. D [1]: 6 | effect of a large single dose on the duration of life [2]: did not increase the duration of life | toxic side effects [9]: paralytic symptoms due to neurotoxicity
